# Assay results published in patent US10455839B2, “Pre-plant biocide uses of aqueous cyanamides” (METBRO DI[…], priority 2015, dated 2019).
# How the values were obtained:
# [1] = test system: P. vulnus; assay: Five-day sieve-mist extraction of nematodes from roots and soil after tree drench (FIG. 27); assay type: in vivo, Pratylenchus vulnus; conditions: 2,000 ppm drench
# [2] = test system: Meloidogyne incognita race-3; assay: Field Station drench of sandy loam soil infested with root-knot nematode (FIGS. 18-19); assay type: in vivo
# Experimental: Field Station evaluations included sandy loam soil at 10° C. vs 15° C. in adjacent sites. These sites were uniformly infested with Meloidogyne incognita race-3. The first site (10° C.) was drenched with 750 or 1,000 ppm to a depth of 40 cm and planted with carrots 70 DAT. Ten weeks later soil at the second site (15° C.) was drenched with 1,250 or 1,500 ppm and 30 DAT planted with sweet potato slips. Nematode samples were collected at 0-15 and 15-30 cm depths.
# [3] = test system: cotton or occasional nutgrass; assay: Phytotoxicity after drench in cotton field; assay type: in vivo; conditions: 3,000 or 4,500 ppm; never irrigated field
# [4] = test system: eight-year-old butternut trees, Juglans cathayensis; assay: Drench of eight-year-old butternut trees, tree kill (FIG. 26); assay type: in vivo
# From the text: Field Station evaluation of eight-year-old butternut trees, Juglans cathayensis, drenched with 2,000 ppm HyCyn within 400 or 800 L water. Two of four trees receiving 400 L solution were not completely killed but four of four trees receiving 800 L of the same solution were killed (FIG. 26).
# [5] = test system: Young almond trees on NEMAGUARD rootstock; assay: Almond replant site soil, potted tree growth (FIGS. 22-23); assay type: in vivo
# From the text: Field Station evaluation involved sandy loam soil at an almond replant site drenched uniformly with 1,000 ppm. Surface soil was collected 60 days later and potted from three treatments, water only, 250 ppm Telone EC and 1000 ppm HyCyn. Young almond trees on NEMAGUARD rootstock were planted to each pot and trees maintained for six months.
# [6] = test system: one-year-old almonds trees; assay: Root system soak of one-year-old almond trees (FIGS. 24-25); assay type: in vivo; conditions: 750 ppm, 24 hr, entire root systems soaked in a static setting
# From the text: Field Station evaluation where root systems of one-year-old almonds trees were placed in concentrations of HyCyn. Intact 1-yr-old trees were separated from their planting pots and placed into buckets containing open solutions of 400; 750; 1,000; 1,250; 1,500; or 3,000 ppm HyCyn for 6, 18 or 24 hr. […] The results are depicted in FIGS. 24 and 25.
# [7] = test system: endo and ecotparasitic nematodes; assay: Soil column drench, nematode control (Example 1, FIG. 2); assay type: in vivo; conditions: 750 ppm; soil screened free of roots; 15, 30 and 60 days after treatment
# Experimental: In situ soil borne pest and disease populations were determined from known commercial locations. These infested soils were commonly of sandy loam or fine sandy loam texture that were screened free of all but the smallest of roots as they were placed into buckets. Buckets were then transported to a single location of deep loamy sand soil where 30″ long by 3″ diameter PVC open-ended pipes had been inserted to a depth of 22″ using a 3″ can auger (FIG. 1). Each soil column was then filled with infested soil to a depth of 22″ using a shovel handle to compress soil density during the soil transfer process.
# The surface 8″ of each column remained vacant in order to eventually apply one liter of biocide solution onto each soil column and then determine the amount of time required to fully infiltrate the liter of water. Because infiltration rates varied from 3 hr to 4 days across each different biocide with or without adjuvant each column was used only once. Columns were cleaned and re-inserted to a different nearby location for subsequent tests. As testing proceeded dosage response curves were developed to reveal dosages needed to reach threshold levels for pest impact followed by quantification of the dosage needed to achieve as much as 100% pest kill where possible. […]
# [8] = test system: F. oxysporum race-4; assay: Field Station drench of sandy loam soil to be planted to cotton, fungal counts (FIGS. 20-21); assay type: in vivo, Fusarium oxysporum; conditions: 3,000 or 4,500 ppm drenched to 40 cm; sandy loam at 10° C.; counted 28 and 70 DAT
# Experimental: Field Station evaluation in sandy loam soil at 10° C. to be planted to cotton soil was drenched with 3,000 or 4,500 ppm HyCyn to 40 cm depth. F. oxysporum race-4 were identified and counted at 28 DAT (FIG. 20) and 70 DAT (FIG. 21).
smiles,measurement,setting,value
"N#CN [HyCyn, hydrogen cyanamide]",kill of soil dwelling nematodes,[1]; beneath the surface 90 cm of treated soil,99.9%
same,kill of P. vulnus from root samples,"[1]; root samples, FIG. 27: 30 DAT",kill of all P. vulnus
same,nematode control,"[2]; 750 or 1,000 ppm drenched to 40 cm, sandy loam soil at 10° C., carrots",no nematode control
same,nematode control,"[2]; 1,250 or 1,500 ppm, sandy loam soil at 15° C., sweet potato",did provide nematode control
same,burning of leaves of cotton or occasional nutgrass,[3],did not cease even five months after treatment
same,trees not completely killed,"[4]; 2,000 ppm within 400 L water",Two of four
same,trees killed,"[4]; 2,000 ppm within 800 L water",four of four
same,root rejection component of the replant problem,"[5]; 1,000 ppm",provides a remedy for the root rejection component of the replant problem
same,tree growth after six months (FIG. 23),"[5]; 1,000 ppm, compared to soil treated with 250 ppm Telone ec or untreated soil",improved growth
same,tree growth within 2 months after planting,"[5]; soil drenched with 1,000 ppm, collected 60 days later and potted, versus water only",improved growth
same,plant biomass at the 6th month,"[5]; soil drenched with 1,000 ppm, compared to the untreated",plant biomass differences were greater
same,tree survival after root soak,[6],no tree survived or re-initiated growth
same,effect on nematode populations in test soil,[7],elimination of endo and ecotparasitic nematodes
same,rate needed to halt F. oxysporum,[8],highest rate was necessary to halt F. oxysporum
